{"source": "patent US8536191B2", "about": "(priority 2010, dated 2013)", "key": {"[1]": {"assay": "Physical stability under mechanical stress (compression, grinding, milling), checked by X-ray powder diffraction", "assay_type": "physicochemical", "protocol": "The crystalline forms of nalbuphine HCl were identified by their powder X-ray diffraction (PXRD) peaks/pattern. PXRD analyses of crystalline Forms A, B, C, D, F, G, H, I, K and amorphous Form Z were performed using an Inel XRG-3000 diffractometer equipped with a CPS (Curved Position Sensitive) detector with a 2θ range of 120°. Real time data were collected using Cu—Kα radiation starting at approximately 4°2θ at a resolution of 0.03°2θ. The tube voltage and amperage were set to 40 kV and 30 mA, respectively. The monochromator slit was set at 5 mm by 160 μm. […] The sample was prepared for analysis by packing into a thin-walled glass capillary. The capillary was mounted onto a goniometer head that is motorized to permit spinning of the capillary during data acquisition. Instrument calibration was performed using a silicon reference standard."}, "[2]": {"assay": "Form conversion upon heating (VT-XRPD)", "assay_type": "physicochemical", "details": "before melting, HCl", "protocol": "Variable-temperature X-ray powder diffraction (VT-XRPD) analysis was performed on a Shimadzu XRD-6000 X-ray powder diffractometer equipped with an Anton Paar HTK 1200 high temperature stage. The sample was packed in a ceramic holder and analyzed from 2.5 to 40°2θ at 3°/min (0.4 sec/0.02° step). The heating rate was 10° C./min. Cooling was done by shutting off the furnace. A silicon standard was analyzed to check the instrument alignment. Temperature calibration was performed using vanillin and sulfapyridine standards. Data were collected and analyzed using XRD-6100/7000 v. 5.0. In house software (Pattern Match, SSCI Inc., An Aptuit Company) was used to generate and edit the peak lists. The value of each peak position represents the value at the apex of the peak. In the tables which follow herein, the PXRD peak lists are presented for each solid form along with the conversion to ‘d’ value (assuming a mean Cu Kα wavelength of 1.5418 Å) and relative peak intensities scaled to 100. The relative intensity (“R.I.”) of each peak is shown, wherein Relative Intensity is the ratio of the height of each peak compared to the highest peak, which is designated as 100%."}, "[3]": {"assay": "Physical stability on drying at 60° C.", "details": "dried at 60° C."}}, "note": "Where two headings read alike, the source gives them in different places.", "data": [{"smiles": "Cl.Oc1ccc2c3c1O[C@H]1[C@@H](O)CC[C@@]4(O)[C@@H](C2)N(CC2CCC2)CC[C@]314", "note": "[Form A]", "values": [{"measurement": "form change under mechanical stress", "setting": "[1]; compression or dry grinding", "value": "converting to Form C"}, {"measurement": "effect of further grinding on crystallinity", "setting": "[1]; further grinding, X-ray powder diffraction", "value": "some loss of crystallinity and formed partially amorphous material"}, {"measurement": "form change under mechanical stress", "setting": "[1]; wet grinding", "value": "Form B"}, {"measurement": "form change at extremely high humidity", "setting": "97% RH, hydrochloride", "value": "Form B (dihydrate)"}]}, {"smiles": "Cl.Oc1ccc2c3c1O[C@H]1[C@@H](O)CC[C@@]4(O)[C@@H](C2)N(CC2CCC2)CC[C@]314", "note": "[Form B, nalbuphine HCl]", "values": [{"measurement": "physical stability when milled", "setting": "[1]; milled, X-ray powder diffraction", "value": "physically unstable when milled, losing its crystallinity"}, {"measurement": "temperature of conversion to Form F upon heating", "setting": "[2]", "value": "about 190 °C"}, {"measurement": "physical stability when dried", "setting": "[3]", "value": "mostly converting to Form C (monohydrate)"}]}, {"smiles": "Cl.Oc1ccc2c3c1O[C@H]1[C@@H](O)CC[C@@]4(O)[C@@H](C2)N(CC2CCC2)CC[C@]314", "note": "[Form C, nalbuphine HCl]", "values": [{"measurement": "temperature of conversion to Form F upon heating", "setting": "[2]", "value": 200, "unit": "°C"}, {"measurement": "form change at extremely high humidity", "setting": "97% RH", "value": "converts to Form B (dihydrate)"}]}, {"smiles": "Cl.Oc1ccc2c3c1O[C@H]1[C@@H](O)CC[C@@]4(O)[C@@H](C2)N(CC2CCC2)CC[C@]314", "note": "[Form D, nalbuphine HCl]", "values": [{"measurement": "temperature of conversion to Form F upon heating", "setting": "[2]", "value": "about 180 °C"}]}, {"smiles": "Cl.Oc1ccc2c3c1O[C@H]1[C@@H](O)CC[C@@]4(O)[C@@H](C2)N(CC2CCC2)CC[C@]314", "note": "[Form F, nalbuphine HCl]", "values": [{"measurement": "form change at extremely high humidity", "setting": "85% RH", "value": "converts to Form B (dihydrate)"}]}]}
